This is an account of results in patent US20170197938A1, “A QUINOLINE DERIVATIVE FOR THE TREATMENT OF INFLAMMATORY DISEASES AND AIDS” (ABIVAX, priority 2014, published 2017).

A word on the IC50: it is the concentration that gives 50% inhibition.

The test system of one assay is HIV-1. Kind of assay: Inhibition of HIV-1 production in infected PBMCs (p24 ELISA). Type of assay: cell-based. The note with it: Human immunodeficiency virus 1, PBMC, read-out: Activity (IC50). As for the experimental part: Within this framework, the peripheral blood mononuclear cells (PBMCs) of healthy donors are isolated by centrifugation on a FICOLL gradient. The cells are then activated two days to a density of 1.5×10^6 cells/ml in RPMI plutamax medium supplemented with 10% fetal calf serum (FCS), 40 U/ml of IL2 and 5 μg/ml PHA, in an incubator at 37° C., 5% CO2.
A standard experiment using 96 plates to test 30 molecules in triplicates including positive and negative controls, is performed as follows:
PHA/IL2 activated PBMCs are washed with RPMI 10% FCS and resuspended at 1.5×10^6 cells/ml in RPMI glutamax 10% FCS, 40 U/ml I12. The cells are seeded in 96 wells (1.5 10^5 cells/well/100 μl). Viral infection is performed with 1 ng of AdaM/well. 100 μl of tested molecules at concentration of 20 μM are added to each well (10 μM final concentration). Virus production is determined by p24 antigen immunosorbent assays after 3 and 6 days of infection (Kit Innogenetics). Typically PBMCs are prepared from several healthy donors (around 11 different donors). […]
The efficacy of compound of formula (1) and of compound no 1 as disclosed in document WO 2012/080953 is measured by the HIV-specific enzyme-linked immunosorbent assay, p24 ELISA.
Drug efficacy is expressed as percent inhibition of the HIV p24 antigen in this rapid and sensitive assay.
For orientation: In an ELISA, binding on a coated surface is turned into a signal by an enzyme label.

The next assay relates to miR-124. Kind of assay: miR-124 expression in PBMCs treated with screened molecules (RT-qPCR, relative quantification). The format is cell-based, human. The note with it: for Fold-change compared to DMSO treated cells, Mean (miR-124 expression): PBMCs of healthy donors, 6 days treatment, quinoline derivative 5 μM, antiretroviral drugs 10 μM, mean of 4 or 5 donors; for effect on miR-124 expression in PBMCs (in words): antiretrovirals in four donors. As for the experimental part:
For that purpose, Peripheral blood mononuclear cells (PBMCs) of several healthy donors have been isolated by centrifugation on a FICOLL™ gradient according to standard protocols.
Briefly, 60-70 mL of buffy-coat are poured in a flask of 175 cm^2, and the volume is adjusted to 300 mL using PBS in order to obtain a dilution of about 5-fold of the buffy cost. 38 mL of diluted Buffy are then added to Falcon™ tubes of 50 mL comprising 12 mL of FICOLL™ (Histopack-1077) at ambient temperature. The preparation is centrifugated for 30 minutes at 515 rcf at ambient temperature. The lymphocyte ring is recovered from the Falcon™ tube with a transfer pipette (Pastette®) and then washed with PBS using centrifugation for 10 minutes at 290 rcf and at ambient temperature until the supernatant becomes clear.
The cells are then resuspended at 37° C. to a density of 1.5×10^6 cells/mL in RPMI Glutamax medium (Life Technologies Ref 61870-010) supplemented with 10% fetal calf serum (FCS) (Thermo Fisher Ref SV30160.03) and without activation. Cells are incubated for 48 hours at 37° C. under 5% CO2.
Six-well plates are used for the screening. Within each well comprising 3.10^6 cell/4 ml RPMI supplemented with 10% fetal calf serum and 40 U/mL IL-2 (Peprotech Ref 200-02) are added screened molecules. 100% DMSO (4 μL) is added to the well and tested as a negative control.
Each tested condition is set up as described here below and the final corresponding volume is adjusted accordingly in the well: • 1) Quinoline derivative in 100% DMSO—(5 μM and final volume 4 μL) • 2) Antiretroviral drugs: Maraviroc, Efavirenz, Darunavir, AZT (10 μM for all—final volume 4 μL).
The wells are incubated for three days at 37° C. under 5% CO2. Medium is changed (Day 3) according to standard protocols. Briefly, plates are centrifugated at 290 rcf for 5 minutes and 3 mL of supernatant is removed. 3 mL of RPMI supplemented with 10% fetal calf serum and 40 U/mL IL-2 is then added with 3 μL of a stock solution of screened molecule at 5 mM in 100% DMSO or 3 μL of 100% DMSO as a negative control.
Cells are recovered within Falcon™ tubes of 15 mL, centrifugated at 290 rcf for 5 minutes, and then washed in 10 mL PBS and further centrifugated at 290 rcf for 5 minutes. Cells are then resuspended in 1 mL PBS and counted.
6×10^6 cells are recovered and centrifugated at 290 rcf for 5 minutes. The cell pellet is lysed in 300 μL of ML lysis buffer from the Macherey Nagel Nucleospin® miRNA extraction kit (Macherey Nagel Ref 740971), and further stored at −20° C.
5 μL of 2×10^8 copies/μL of spike-in control (Ce_miR-39 from QIAGEN®—reference 219610 of SEQ ID No 6) are added for each sample. The miRNA extraction is achieved using the protocol from Macherey Nagel Nucleospin® miRNA extraction kit using an elution volume for RNAs of 50 μL and miRNAs of 30 μL, and further stored at −20° C.
The reverse transcription step is followed for 12 μL of miRNA using the miScript RT II reverse transcription (RT) kit from QIAGEN® using the miScript HiSpec buffer, and further stored at −20° C.
The quantitative PCR step is achieved using the QIAGEN® miScript SYBR® Green PCR kit and miScript Primer Assays according to the manufacturer's protocol.
The reaction is repeated in triplicates in a 384-well plate according to the manufacturer's protocol on a LightCycler® […] Roche Real-Time PCR system. Cycling conditions are also set up according to the manufacturer's protocol:
From a dilution to the 1/10th in H2O for the miR-124 qPCR (Hs'miR-124a) or to the 1/100th for reference/housekeeping gene qPCR (Hs_miR-26a and Hs_miR-191, using miScript Primer Assays (Hs_miR-124a, Hs_miR-26a and Hs_miR-191 or QIAGEN®—references ms00006622, ms00029239 and ms00003682).
The analysis is achieved using relative quantification models without efficiency correction (2^−ΔΔCp) using the average of crossing points (Cp) values from triplicates of miR-124 and the average of the average of triplicates of miR-26a and miR-191. […]
On the technique in general: Real-time PCR tracks product formation cycle by cycle.

Take `FC(F)(F)c1ccnc(Nc2ccc3c(OCCN4CCOCC4)ccc(Cl)c3n2)c1`: the IC50 in the assay on HIV-1 is 62.3 µM.

Consider `Cc1cn([C@H]2C[C@H](N=[N+]=[N-])[C@@H](CO)O2)c(=O)[nH]c1=O` [AZT], for which, in the assay with miR-124, the “Fold-change compared to DMSO treated cells, Mean (miR-124 expression)” value (“Fold-change” below) amounted to 0.90 and the “effect on miR-124 expression in PBMCs (in words)” value (“effect on miR-124 expression” for short) is on record as “none of the known antiretroviral (Maraviroc, Effavirenz, Darunavir or AZT) has any significant effect”.

With `FC(F)(F)c1ccnc(Nc2ccc3cc(OCCN4CCOCC4)cc(Cl)c3n2)c1` [Compound of formula (1), 8-chloro-6-(2-morpholinoethoxy)-N-(4-(trifluoromethyl)pyridin-2-yl)quinolin-2-amine], the concentration for half-maximal inhibition (IC50) in the assay on HIV-1 amounted to 0.43 µM. In the assay with miR-124, the “Fold-change” value worked out at 32.04 and the “effect on miR-124 expression” value was “up-regulate the expression levels of miR-124”.

Turning to `CC(C)CN(C[C@@H](O)[C@H](Cc1ccccc1)NC(=O)O[C@H]1CO[C@H]2OCC[C@H]21)S(=O)(=O)c1ccc(N)cc1` [Darunavir], in the assay with miR-124, the “Fold-change” value is given as 1.08 and the “effect on miR-124 expression” value is “none of the known antiretroviral (Maraviroc, Effavirenz, Darunavir or AZT) has any significant effect”.

`O=C1Nc2ccc(Cl)cc2[C@@](C#CC2CC2)(C(F)(F)F)O1` [Effavirenz, Efavirenz]: in the assay on miR-124, the “Fold-change” value came to 0.46 and the “effect on miR-124 expression” value was “none of the known antiretroviral (Maraviroc, Effavirenz, Darunavir or AZT) has any significant effect”.

As to Maraviroc, in the assay on miR-124, the “Fold-change” value is given as 0.73 and the “effect on miR-124 expression” value is on record as “none of the known antiretroviral (Maraviroc, Effavirenz, Darunavir or AZT) has any significant effect”.
